Where only a bound is given, the exact number is not on record here.

The text below walks through data of ChEMBL document CHEMBL5543059, “Discovery of anti-inflammatory natural flavonoids: Diverse scaffolds and promising leads for drug discovery” (Eur J Med Chem, 2023).

Test [1] relates to BV-2. Briefly: Antiinflammatory activity in mouse BV-2 cells assessed as reduction in LPS-induced NO production by Griess reagent based analysis. It counts as functional, cell-based.
The nature of test [2]: Anti-inflammatory activity in LPS-stimulated human PBMC cells assessed as 5-lipoxygenase inhibition at 100 ug/ml relative to control. It counts as functional. The arrangement: scale not given: the % may be the effect or the level left. As to conditions: dose 100 µg/ml.
Test [3] in a line: Anti-inflammatory activity in LPS-stimulated human PBMC cells assessed as COX-2 inhibition at 100 ug/ml relative to control. It counts as functional. The arrangement: scale not given: the % may be the effect or the level left. As to conditions: dose 100 µg/ml.
Test [4] can be described thus: Antioxidant activity assessed as DPPH radical scavenging activity at 100 microg/ml relative to control. Type of test: functional. The conditions noted are these: dose 100.0 µg/ml.
Test [5] in a line: Anti-inflammatory activity in LPS-stimulated human PBMC cells assessed as inhibition of TNFalpha at 100 ug/ml relative to control. Type of test: functional. The arrangement: scale not given: the % may be the effect or the level left. The conditions noted are these: dose 100 µg/ml.
For test [6], the system named is RAW264.7. Nature of the test: Inhibition of NF-kappaB activation in mouse RAW264.7 cells expressing luciferase gene at 100 microg/ml by luciferase reporter gene assay. It counts as cell-based. As to conditions: dose 100.0 µg/ml.
Test [7] deals with Rattus norvegicus. Nature of the test: Anti-inflammatory activity against carrageenan-induced paw edema in Wistar rat assessed as reduction in paw edema at 100 mg/kg, po measured after 3 hrs relative to control. It counts as functional. The arrangement: scale not given: the % may be the effect or the level left.
Test [8] deals with Mus musculus. Nature of the test: Anti-inflammatory activity against xylene-induced ear edema Swiss mouse model assessed as inhibition of ear edema at 0.25 ug/ml, po measured after 6 hrs relative to control. Type of test: functional. The arrangement: scale not given: the % may be the effect or the level left. The conditions noted are these: dose 0.25 µg/ml.
Test [9] relates to Rattus norvegicus. Briefly: Anti-inflammatory activity against carrageenan-induced paw edema in Wistar rat assessed as reduction in paw edema at 100 mg/kg, po measured after 1 hrs relative to control. Type of test: functional. The arrangement: scale not given: the % may be the effect or the level left.
Test [10] concerns Neutrophil. Nature of the test: Inhibition of fMLF/CB-induced human Neutrophil activation assessed as reduction in elastase release at 10 uM relative to control. The arrangement: scale not given: the % may be the effect or the level left. Type of test: functional.
Test [11] is described as follows: Anti-inflammatory activity in carrageenan-induced human PBMC cells assessed as inhibition of IL-beta leakage at 10 uM measured for 24 hrs relative to control. Type of test: functional. The arrangement: scale not given: the % may be the effect or the level left.
The subject of test [12] is Mus musculus. Nature of the test: Anti-inflammatory activity against xylene-induced ear edema Swiss mouse model assessed as inhibition of ear edema at 0.025 ug/ml, po measured after 6 hrs relative to control. Type of test: functional. The arrangement: scale not given: the % may be the effect or the level left. As to conditions: dose 0.025 µg/ml.
In test [13] the target is T1, Neutrophil elastase (Homo sapiens, UniProt P08246).
T1 sequence (P08246 whole entry): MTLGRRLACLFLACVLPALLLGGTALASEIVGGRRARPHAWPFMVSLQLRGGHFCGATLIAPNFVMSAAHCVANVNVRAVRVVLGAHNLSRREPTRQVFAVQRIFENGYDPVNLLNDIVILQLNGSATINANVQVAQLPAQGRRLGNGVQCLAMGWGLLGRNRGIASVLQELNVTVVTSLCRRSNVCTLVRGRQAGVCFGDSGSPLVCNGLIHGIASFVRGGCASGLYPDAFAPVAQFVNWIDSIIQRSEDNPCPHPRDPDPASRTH
Nature of the test: Inhibition of human Neutrophil elastase. It counts as cell-based.

Test [14] concerns BV-2. Briefly: Antineuroinflammatory activity in LPS-induced mouse BV-2 cells assessed as inhibition of iNOS production at 50 uM pre-incubated for 2 hr followed by LPS-stimulation measured for 24 hrs by Western blot analysis. Type of test: functional. The arrangement: scale not given: the % may be the effect or the level left. As to conditions: time 26 hrs.
The test system of test [15] is Mus musculus. Nature of the test: Anti-inflammatory activity in mouse model of xylene-induced auricle edema assessed as inhibition of ear swelling at 200 mg/kg, IG pre-treated for 1 hr followed by xylene addition and measured after 1 hr relative to control. Type of test: functional. The arrangement: scale not given: the % may be the effect or the level left.
In test [16] the test system is Neutrophil. Nature of the test: Inhibition of fMLP-induced cell migration in human neutrophil. Type of test: functional, cell-based.
The target of test [17] is Transient receptor potential cation channel subfamily V member 1 (Homo sapiens) (UniProt Q8NER1). Briefly: Inhibition of TRPV-1 (unknown origin) at 12.5 uM relative to control.
Transient receptor potential cation channel subfamily V member 1 (Homo sapiens), sequence (Q8NER1 whole entry): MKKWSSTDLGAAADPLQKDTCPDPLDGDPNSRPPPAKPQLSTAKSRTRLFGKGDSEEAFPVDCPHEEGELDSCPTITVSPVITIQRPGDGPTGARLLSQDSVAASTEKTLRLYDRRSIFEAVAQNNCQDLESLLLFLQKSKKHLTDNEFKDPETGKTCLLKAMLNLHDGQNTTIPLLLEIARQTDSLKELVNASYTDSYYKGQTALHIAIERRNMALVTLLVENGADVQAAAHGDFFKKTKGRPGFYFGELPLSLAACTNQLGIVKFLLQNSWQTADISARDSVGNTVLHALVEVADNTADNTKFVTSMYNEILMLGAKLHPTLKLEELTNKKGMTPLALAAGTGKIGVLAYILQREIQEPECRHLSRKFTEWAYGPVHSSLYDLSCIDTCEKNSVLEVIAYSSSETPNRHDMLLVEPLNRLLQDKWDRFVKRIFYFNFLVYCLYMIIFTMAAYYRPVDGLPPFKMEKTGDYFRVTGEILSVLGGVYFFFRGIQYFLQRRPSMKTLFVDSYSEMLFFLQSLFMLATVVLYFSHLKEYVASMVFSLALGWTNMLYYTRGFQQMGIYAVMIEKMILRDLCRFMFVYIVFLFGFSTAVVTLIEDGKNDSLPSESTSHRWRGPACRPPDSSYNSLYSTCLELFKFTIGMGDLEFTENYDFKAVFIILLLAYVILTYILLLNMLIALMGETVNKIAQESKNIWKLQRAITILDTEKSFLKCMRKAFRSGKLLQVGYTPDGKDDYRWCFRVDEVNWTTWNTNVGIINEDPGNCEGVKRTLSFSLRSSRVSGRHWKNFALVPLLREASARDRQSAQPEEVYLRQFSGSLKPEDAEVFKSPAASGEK
Test [18] has as its system Neutrophil. Briefly: Inhibition of fMLF/CB-induced human Neutrophil activation assessed as reduction in elastase release using MeO-Suc-Ala-Ala-Pro-Val-pnitroanilide as substrate pre-incubated for 2 mins followed by fMLF/CB-stimulation and measured for 5 mins. Type of test: functional, cell-based.
In test [19] the test system is HaCaT. Nature of the test: Anti-inflammatory activity in LPS-stimulated human HaCaT cells assessed as reduction of IL-6 expression at 12.5 uM. It counts as functional. The arrangement: scale not given: the % may be the effect or the level left.
In test [20] the test system is Mus musculus. Nature of the test: Antiinflammatory activity against TPA-induced CD-1 mouse ear edema model assessed as reduction in ear edema at 0.25 mg/kg relative to control. It counts as functional. The arrangement: scale not given: the % may be the effect or the level left.
Test [21] deals with Mus musculus. Briefly: Antiinflammatory activity against TPA-induced CD-1 mouse ear edema model assessed as reduction in ear edema. Type of test: functional, organism-based.

For `COc1cc(-c2cc(=O)c3c(O)c(OC)c(O)cc3o2)ccc1O` [JACEOSIDINE], the IC50 in test [1] was 27 µM.

`COc1cc(-c2cc(=O)c3c(O)cc(O)cc3o2)cc(O)c1OC`: the Activity amounted to 98.4% in test [2], 83.3% in test [3], 40% in test [4] and 86.1% in test [5]. This compound also yielded an inhibition in [6] of 23.1%.

For the compound `COc1ccc(-c2cc(=O)c3c(O)c(OC)c(OC)c(OC)c3o2)cc1OC` [5-DEMETHYLNOBILETIN], the Activity in test [7] was 47%; in [8] it was 41%; in test [9] it was 65%; in test [10], 89%; in test [11], 24.8%; in test [12], 79%. The compound further had an IC50 in test [13] of 0.35 µM.

For `COc1ccc(-c2cc(=O)c3c(OC)c(OC)c(OC)c(OC)c3o2)cc1OC` [NOBILETIN], in test [14], the Activity is given as 71.2%.

With `CC(=O)Oc1ccccc1C(=O)O` [ASPIRIN], the Activity in test [15] is 41.07%.

In [16], `COc1cc(O)c2c(=O)cc(-c3ccccc3)oc2c1` [TECHTOCHRYSIN] registered an IC50 of 1.77 µM.

Compound `COc1cc(O)c2c(=O)cc(-c3ccc(O)c(O)c3)oc2c1` had an inhibition in test [17] of 33%. Moreover, the IC50 in test [18] is at most 15.2 µM. Besides, the Activity in test [19] was 52%.

Regarding `O=C1C[C@@H](c2ccc(O)c(O)c2)Oc2cc(O)cc(O)c21` [ERIODICTYOL], the Activity in [20] is listed as 56.3%. For the same compound, the IC50 in [21] was found to be 0.72 µM.
